Assay results: patent publication US10696615B2, “Prenylated hydroxystilbenes” (The University of Sydney, priority 2011, dated 2020)

Legend:
IGROV1 = test: NCI in vitro cancer screen, Ovarian Cancer; format: cell-based, human; conditions: IGROV1
HL-60 (TB) = test: NCI in vitro cancer screen, Leukemia; format: cell-based, human; conditions: HL-60 (TB)
OVCAR-8 = test: NCI in vitro cancer screen, Ovarian Cancer; format: cell-based, human; conditions: OVCAR-8
TK-10 = test: NCI in vitro cancer screen, Renal Cancer; format: cell-based, human; conditions: TK-10
SNB-75 = test: NCI in vitro cancer screen, CNS Cancer; format: cell-based, human; conditions: SNB-75
SN12C = test: NCI in vitro cancer screen, Renal Cancer; format: cell-based, human
SF-539 = test: NCI in vitro cancer screen, CNS Cancer; format: cell-based; conditions: SF-539
MOLT-4 = test: NCI in vitro cancer screen, Leukemia; format: cell-based, human; conditions: MOLT-4
OVCAR-3 = test: NCI in vitro cancer screen, Ovarian Cancer; format: cell-based, human; conditions: OVCAR-3
SK-OV-3 = test: NCI in vitro cancer screen, Ovarian Cancer; format: cell-based, human; conditions: SK-OV-3
A549/ATCC = test: NCI in vitro cancer screen, Non-Small Cell Lung Cancer; format: cell-based, human
LOX IMVI = test: NCI in vitro cancer screen, Melanoma; format: cell-based, human
KM12 = test: NCI in vitro cancer screen, Colon Cancer; format: cell-based, human; conditions: KM12
OVCAR-5 = test: NCI in vitro cancer screen, Ovarian Cancer; format: cell-based, human; conditions: OVCAR-5
NCI-H522 = test: NCI in vitro cancer screen, Non-Small Cell Lung Cancer; format: cell-based, human; conditions: NCI-H522
HS 578T = test: NCI in vitro cancer screen, Breast Cancer; format: cell-based, human
UACC-62 = test: NCI in vitro cancer screen, Melanoma; format: cell-based, human; conditions: UACC-62
HOP-92 = test: NCI in vitro cancer screen, Non-Small Cell Lung Cancer; format: cell-based, human; conditions: HOP-92
SW-620 = test: NCI in vitro cancer screen, Colon Cancer; format: cell-based, human; conditions: SW-620
K-562 = test: NCI in vitro cancer screen, Leukemia; format: cell-based, human; conditions: K-562
SF-295 = test: NCI in vitro cancer screen, CNS Cancer; format: cell-based, human; conditions: SF-295
RXF-393 = test: NCI in vitro cancer screen, Renal Cancer; format: cell-based, human; conditions: RXF-393
MDA-MB-435 = test: NCI in vitro cancer screen, Melanoma; format: cell-based, human; conditions: MDA-MB-435
SF-268 = test: NCI in vitro cancer screen, CNS Cancer; format: cell-based, human; conditions: SF-268
HOP-62 = test: NCI in vitro cancer screen, Non-Small Cell Lung Cancer; format: cell-based, human; conditions: HOP-62
786-0 = test: NCI in vitro cancer screen, Renal Cancer; format: cell-based, human; conditions: 786-0
PC-3 = test: NCI in vitro cancer screen, Prostate Cancer; format: cell-based, human; conditions: PC-3
T-47D = test: NCI in vitro cancer screen, Breast Cancer; format: cell-based, human
NCI-H226 = test: NCI in vitro cancer screen, Non-Small Cell Lung Cancer; format: cell-based, human; conditions: NCI-H226
A498 = test: NCI in vitro cancer screen, Renal Cancer; format: cell-based, human; conditions: A498
SK-MEL-5 = test: NCI in vitro cancer screen, Melanoma; format: cell-based, human; conditions: SK-MEL-5
[1] = Homo sapiens, read-out: LC50 (the source's name)

With `CC(C)=CCc1c(O)cc(/C=C/c2ccc(O)c(O)c2)c(CC=C(C)C)c1O` [USYDS7, (E)-2,4-di(3-methyl-2-buten-1-yl)-3,3′,4′,5-tetrahydroxystilbene] as the compound, how does the GI50 (IGROV1; Homo sapiens, IGROV-1) read?
Its GI50 is 3.12 µM.

And the CC50 (IGROV1; Homo sapiens, IGROV-1, read-out: LC50 (the source's name))?
The CC50 was 36.7 µM.

And the TGI (IGROV1)?
Its TGI is 8.39 µM.

What about the TGI (HL-60 (TB)) of the same compound?
Its TGI is 5.06 µM.

What about the GI50 (HL-60 (TB); Homo sapiens) of the same compound?
Its GI50 is 2.39 µM.

What about the CC50 (HL-60 (TB); [1]) of the same compound?
Its CC50 is 13.8 µM.

What about the GI50 (OVCAR-8; Homo sapiens) of the same compound?
Its GI50 is 1.68 µM.

And the CC50 (OVCAR-8; [1])?
The CC50 was 7.95 µM.

And the TGI (OVCAR-8)?
The TGI was 3.65 µM.

And the GI50 (TK-10; Homo sapiens)?
Its GI50 is 3.62 µM.

And the LC50 (TK-10; Homo sapiens)?
Its LC50 is 34.3 µM.

And the TGI (TK-10)?
Its TGI is 11.2 µM.

What about the GI50 (SNB-75; Homo sapiens) of the same compound?
Its GI50 is 2.98 µM.

And the CC50 (SNB-75; [1])?
Its CC50 is 49.1 µM.

And the TGI (SNB-75)?
Its TGI is 12.8 µM.

And the TGI (SN12C)?
The TGI was 3.16 µM.

And the GI50 (SN12C; Homo sapiens)?
The GI50 was 1.65 µM.

What about the CC50 (SN12C; [1]) of the same compound?
Its CC50 is 6.03 µM.

What about the GI50 (SF-539; Homo sapiens) of the same compound?
The GI50 was 2.21 µM.

What about the CC50 (SF-539; [1]) of the same compound?
The CC50 was 35.2 µM.

And the TGI (SF-539)?
The TGI was 6.14 µM.

And the GI50 (MOLT-4; Homo sapiens)?
Its GI50 is 2.01 µM.

What about the CC50 (MOLT-4; [1]) of the same compound?
The CC50 was 26.5 µM.

And the TGI (MOLT-4)?
Its TGI is 5.19 µM.

And the GI50 (OVCAR-3; Homo sapiens)?
Its GI50 is 1.82 µM.

And the CC50 (OVCAR-3; [1])?
The CC50 was 6.19 µM.

And the TGI (OVCAR-3)?
Its TGI is 3.36 µM.

And the GI50 (SK-OV-3; Homo sapiens)?
Its GI50 is 5.98 µM.

And the CC50 (SK-OV-3; [1])?
Its CC50 is 46.5 µM.

And the TGI (SK-OV-3)?
The TGI was 19.4 µM.

What about the TGI (A549/ATCC) of the same compound?
Its TGI is 4.06 µM.

And the GI50 (A549/ATCC; Homo sapiens)?
Its GI50 is 1.88 µM.

And the CC50 (A549/ATCC; [1])?
The CC50 was 8.78 µM.

What about the TGI (LOX IMVI) of the same compound?
The TGI was 3.41 µM.

What about the GI50 (LOX IMVI; Homo sapiens) of the same compound?
The GI50 was 1.71 µM.

What about the CC50 (LOX IMVI; [1]) of the same compound?
Its CC50 is 6.81 µM.

What about the GI50 (KM12; Homo sapiens) of the same compound?
The GI50 was 1.93 µM.

What about the CC50 (KM12; [1]) of the same compound?
Its CC50 is 7.79 µM.

What about the TGI (KM12) of the same compound?
Its TGI is 3.88 µM.

What about the GI50 (OVCAR-5; Homo sapiens) of the same compound?
The GI50 was 3.04 µM.

And the CC50 (OVCAR-5; [1])?
Its CC50 is 39 µM.

What about the TGI (OVCAR-5) of the same compound?
The TGI was 11.6 µM.

What about the GI50 (NCI-H522; Homo sapiens) of the same compound?
The GI50 was 1.61 µM.

And the CC50 (NCI-H522; [1])?
The CC50 was 7.92 µM.

What about the TGI (NCI-H522) of the same compound?
The TGI was 3.57 µM.

What about the TGI (HS 578T) of the same compound?
The TGI was 8.09 µM.

And the GI50 (HS 578T; Homo sapiens)?
Its GI50 is 1.84 µM.

What about the CC50 (HS 578T; [1]) of the same compound?
The CC50 was 50.9 µM.

And the GI50 (UACC-62; Homo sapiens)?
Its GI50 is 2.8 µM.

What about the CC50 (UACC-62; [1]) of the same compound?
The CC50 was 31.5 µM.

And the TGI (UACC-62)?
Its TGI is 7.84 µM.

What about the TGI (HOP-92) of the same compound?
Its TGI is 4.21 µM.

And the GI50 (HOP-92; Homo sapiens)?
The GI50 was 1.52 µM.

And the CC50 (HOP-92; [1])?
Its CC50 is 14.2 µM.

And the GI50 (SW-620; Homo sapiens)?
The GI50 was 1.58 µM.

What about the CC50 (SW-620; [1]) of the same compound?
The CC50 was 6.42 µM.

What about the TGI (SW-620) of the same compound?
The TGI was 3.19 µM.

And the GI50 (K-562; Homo sapiens, K562)?
The GI50 was 2.14 µM.

And the CC50 (K-562; Homo sapiens, K562, read-out: LC50 (the source's name))?
The CC50 was 17.4 µM.

What about the TGI (K-562) of the same compound?
The TGI was 4.78 µM.

And the GI50 (SF-295; Homo sapiens)?
The GI50 was 3.37 µM.

What about the CC50 (SF-295; [1]) of the same compound?
Its CC50 is 44.6 µM.

What about the TGI (SF-295) of the same compound?
The TGI was 11.4 µM.

What about the GI50 (RXF-393; Homo sapiens) of the same compound?
The GI50 was 1.53 µM.

And the CC50 (RXF-393; [1])?
The CC50 was 6.8 µM.

What about the TGI (RXF-393) of the same compound?
Its TGI is 3.23 µM.

And the GI50 (MDA-MB-435; Homo sapiens)?
The GI50 was 2.29 µM.

And the CC50 (MDA-MB-435; [1])?
The CC50 was 31.7 µM.

What about the TGI (MDA-MB-435) of the same compound?
Its TGI is 6.47 µM.

What about the GI50 (SF-268; Homo sapiens) of the same compound?
The GI50 was 2.26 µM.

What about the CC50 (SF-268; [1]) of the same compound?
The CC50 was 22.7 µM.

And the TGI (SF-268)?
The TGI was 5.47 µM.

And the TGI (HOP-62)?
Its TGI is 15.0 µM.

And the GI50 (HOP-62; Homo sapiens)?
Its GI50 is 3.67 µM.

What about the CC50 (HOP-62; [1]) of the same compound?
Its CC50 is 51.6 µM.

And the TGI (786-0)?
Its TGI is 4.47 µM.

And the GI50 (786-0; Homo sapiens)?
The GI50 was 1.99 µM.

And the LC50 (50% net cell kill) (786-0; Homo sapiens)?
The LC50 (50% net cell kill) was 10.2 µM.

And the GI50 (PC-3; Homo sapiens)?
The GI50 was 2.02 µM.

What about the CC50 (PC-3; [1]) of the same compound?
Its CC50 is 11.3 µM.

And the TGI (PC-3)?
The TGI was 4.57 µM.

What about the TGI (T-47D) of the same compound?
The TGI was 6.09 µM.

What about the GI50 (T-47D; Homo sapiens, T47D) of the same compound?
The GI50 was 1.88 µM.

And the CC50 (T-47D; Homo sapiens, T47D, read-out: LC50 (the source's name))?
The CC50 was 43.5 µM.

And the GI50 (NCI-H226; Homo sapiens)?
The GI50 was 2.28 µM.

And the LC50 (50% lethal concentration) (NCI-H226; Homo sapiens)?
Its LC50 (50% lethal concentration) is 28.1 µM.

And the TGI (NCI-H226)?
Its TGI is 6.24 µM.

And the TGI (A498)?
The TGI was 23.8 µM.

What about the GI50 (A498; Homo sapiens) of the same compound?
The GI50 was 11.1 µM.

What about the CC50 (A498; [1]) of the same compound?
Its CC50 is 50.8 µM.

What about the GI50 (SK-MEL-5; Homo sapiens) of the same compound?
The GI50 was 1.8 µM.

What about the CC50 (SK-MEL-5; [1]) of the same compound?
The CC50 was 7.54 µM.

What about the TGI (SK-MEL-5) of the same compound?
Its TGI is 3.68 µM.
